What was measured:
[1] = Cytotoxicity against human PANC1 cells under nutrient-deprived condition after 24 hrs by WST8 dye based assay; assay type: functional; conditions: PANC-1, 24 h, read-out: LC50 (the source's name)
[2] = Cytotoxicity against human PANC1 cells under nutrient-rich condition after 24 hrs by WST8 dye based assay; assay type: functional; conditions: PANC-1, 24 h, read-out: LC50 (the source's name)
PANC-1 [3] = assay: Induction of apoptosis in human PANC1 cells under nutrient-deprived condition after 24 hrs; assay type: functional, cell-based
PANC-1 [4] = assay: Stimulation of cell growth in human PANC1 cells at 6.25 to 50 uM under nutrient-deprived condition after 24 hrs by WST8 dye based assay; assay type: functional

Compound	CC50 [1] [µM]	CC50 [2] [µM]	Activity (PANC-1 [3])	Activity (PANC-1 [4]) [%]
CC(C)=CCC/C(C)=C/CC/C(C)=C/COc1cc2ccccc2oc1=O	12	> 100		
CC(C)=CCC/C(C)=C/COc1cc2ccccc2oc1=O	37	> 100		
CC(C)=CCOc1cc2ccccc2oc1=O	> 100	> 100		
CC(C)=CCOc1ccc2oc(=O)ccc2c1	> 100	> 100		
CC(C)=CCC/C(C)=C/COc1ccc2oc(=O)ccc2c1	12	> 100		
CC(C)=CCC/C(C)=C/CC/C(C)=C/COc1ccc2oc(=O)ccc2c1	4	> 100	Dose-dependent effect	
CC(C)=CCO	> 100	> 100		
O=c1oc2ccccc2cc1O [3-HYDROXYCOUMARIN]	> 100	> 100		
O=c1ccc2cc(O)ccc2o1 [6-HYDROXYCOUMARIN]	> 100	> 100		
CC(C)=CCOc1ccc2ccc(=O)oc2c1 [7-PRENYLOXYCOUMARIN]	83	> 100		
CC(C)=CCC/C(C)=C/COc1ccc2ccc(=O)oc2c1 [AURAPTENE]	21	> 100		
CC(C)=CCC/C(C)=C/CC/C(C)=C/CO [FARNESOL]		> 100		40
CC(C)=CCC/C(C)=C/CO [GERANIOL]		> 100		20
O=c1ccc2ccc(O)cc2o1 [UMBELLIFERONE]	> 100	> 100		
CC(C)=CCC/C(C)=C/CC/C(C)=C/COc1ccc2ccc(=O)oc2c1 [UMBELLIPRENIN]	18	> 100		
